Measurements: patent publication US7192731B2, “Methods for efficient extraction of carotenoids using an esterase” (The State of Israel, Ministry of Agriculture & Rural …, priority 2001, dated 2007)

Columns and labels:
lipase = test: Effect of CaCl2 and NaCl on lipase activity (deestrification of red-pepper carotenoids); format: biochemical; details: 150 mM NaCl without CaCl2
Experimental: The activity of lipase at pH 7.6 at 37.0° C. for 18 hours on the deestrification of red-pepper carotenoids was measured in the presence of CaCl2 and NaCl.

[1] = Enzymatic deesterification of paprika oleoresin carotenoids by lipases, HPLC; format: biochemical; details: similar assays, 37° C.
Experimental: HPLC was conducted on a Shimadzu LC-10 AT equipped with SCL-10A Shimadzu diode array detector. Photodiode array measurements of spectral properties from the individual peaks (from 260 to 540 nm) were determined at the upslope, apex and downslope. The column (Merck RP-18e 3.4×250 […], 5-μm particles) was used for HPLC separations. The peaks were detected at 450 and 474 nm.
Paprika oleoresin (20 mg) was mixed with TWEEN-20 (200 μl) or deoxycholate (100 mg) and 10 ml of H2O. The emulsion has been shaken at 37° C. for 24 hours. Extraction of carotenoids was performed by the addition of 4 ml of ethanol and 5 ml of hexane. The extraction with hexane was done repeatedly until no color could be observed in the extracts. The combined hexane extracts were washed with water (25 ml) and dried over anhydrous sodium sulfate for HPLC determination of the carotenoids.
Immobilized lipase from Candida rugosa (Sigma-Aldrich Corp., St Louis, Mo.). Following use in deesterification, the enzyme-bearing beads are recovered by precipitation at 15 K RPM, and stored at 4° C. until reuse.
Immobilized lipase beads may be recycled by precipitation, and reused. […] FIG. 8 compares the efficiency of deesterification with fresh, once-, and twice-recycled immobilized lipase, quantifying the efficient reuse of the immobilized enzyme with paprika oleoresin. […]

deesterification of paprika carotenoids compared with lipase amano 30 [1]	Molecule	deestrification (lipase)
–	[Cl-].[Na+] [NaCl]	87%
far poorer results	pancreatic lipase: pancreatic lipase from porcine, Sigma (protein, UniProt P00591 1-450, looked up) Pancreatic triacylglycerol …: SEVCFPRLGCFSDDAPWAGIVQRPLKILPWSPKDVDTRFLLYTNQNQNNYQELVADPSTITNSNFRMDRKTRFIIHGFIDKGEEDWLSNICKNLFKVESVNCICVDWKGGSRTGYTQASQNIRIVGAEVAYFVEVLKSSLGYSPSNVHVIGHSLGSHAAGEAGRRTNGTIERITGLDPAEPCFQGTPELVRLDPSDAKFVDVIHTDAAPIIPNLGFGMSQTVGHLDFFPNGGKQMPGCQKNILSQIVDIDGIWEGTRDFVACNHLRSYKYYADSILNPDGFAGFPCDSYNVFTANKCFPCPSEGCPQMGHYADRFPGKTNGVSQVFYLNTGDASNFARWRYKVSVTLSGKKVTGHILVSLFGNEGNSRQYEIYKGTLQPDNTHSDEFDSDVEVGDLQKVKFIWYNNNVINPTLPRVGASKITVERNDGKVYDFCSQETVREEVLLTLNPC	–
